In US20230365553A1, “COMPOUNDS AND COMPOSITIONS FOR TREATING CONDITIONS ASSOCIATED WITH STING ACTIVITY” (IFM Due, Inc., priority 2020, published 2023):

molecular target: T1, STING (Homo sapiens, UniProt Q86WV6, G230A/H232R/R293Q/R71H); test: STING reporter assay: luciferase reporter activity in THP1-Dual KO-IFNAR2 cells stimulated with 2′3′cGAMP; type: cell-based; settings: 15 μM 2′3′cGAMP, 24h, read-out: hSTING EC50
T1 construct: host or cells: THP1-Dual KO-IFNAR2 cells
Description: STING pathway activation by the compounds described herein was measured using THP 1-Dual™ cells (KO-IFNAR2).
THP1-Dual™ KO-IFNAR2 Cells (obtained from invivogen) were maintained in RPMI, 10% FCS, 5 ml P/S, 2 mM L-glut, 10 mM Hepes, and 1 mM sodium pyruvate. Compounds were spotted in empty 384 well tissue culture plates (Greiner 781182) by Echo for a final concentration of 0.0017-100 μM. Cells were plated into the TC plates at 40 μL per well, 2×10E6 cells/mL. For activation with STING ligand, 2′3′cGAMP (MW 718.38, obtained from Invivogen), was prepared in Optimem media.
The following solutions were prepared for each 1×384 plate: • Solution A: 2 mL Optimem with one of the following stimuli: • 60 μL of 10 mM 2′3′cGAMP→150 μM stock • Solution B: 2 mL Optimem with 60 μL Lipofectamine 2000→Incubate 5 min at RT
2 mL of solution A and 2 ml Solution B was mixed and incubated for 20 min at room temperature (RT). 20 μL of transfection solution (A+B) was added on top of the plated cells, with a final 2′3′cGAMP concentration of 15 μM. The plates were then centrifuged immediately at 340 g for 1 minute, after which they were incubated at 37° C., 5% CO2, >98% humidity for 24h. Luciferase reporter activity was then measured. EC50 values were calculated by using standard methods known in the art.
Luciferase reporter assay: 10 μL of supernatant from the assay was transferred to white 384-plate with flat bottom and squared wells. One pouch of QUANTI-Luc™ Plus was dissolved in 25 mL of water. 100 μL of QLC Stabilizer per 25 mL of QUANTI-Luc™ Plus solution was added. 50 μL of QUANTI-Luc™ Plus/QLC solution per well was then added. Luminescence was measured on a Platereader (e.g., Spectramax I3X (Molecular Devices GF3637001)).
Luciferase reporter activity was then measured. EC50 values were calculated by using standard methods known in the art.

T1 sequence (Q86WV6 whole entry R71H/G230A/H232R/R293Q): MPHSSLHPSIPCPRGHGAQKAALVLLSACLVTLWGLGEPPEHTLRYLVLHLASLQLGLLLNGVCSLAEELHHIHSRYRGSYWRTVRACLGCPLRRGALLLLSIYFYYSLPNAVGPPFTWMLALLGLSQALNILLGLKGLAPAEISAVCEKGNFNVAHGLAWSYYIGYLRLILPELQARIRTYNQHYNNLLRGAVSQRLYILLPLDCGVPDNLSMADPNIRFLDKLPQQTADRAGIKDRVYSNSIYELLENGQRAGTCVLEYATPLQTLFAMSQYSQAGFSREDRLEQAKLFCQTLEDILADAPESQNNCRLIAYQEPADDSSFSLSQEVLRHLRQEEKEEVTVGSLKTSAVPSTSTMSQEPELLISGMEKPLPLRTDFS

EC50 [nM]	SMILES
200 to 1000	CC(=O)Nc1c[nH]c2ccc(-c3cnn(C(C)c4cccc(C(F)(F)F)c4)c3)cc12 (stereo not shown) [Compound 179, N-(5-(1-(1-(3-(trifluoromethyl)phenyl)ethyl)-1H-pyrazol-4-yl)-1H-indol-3-yl)acetamide]
200 to 1000	CC(=O)Nc1c[nH]c2ccc(-c3cnn(Cc4cccc(C(F)(F)F)c4)c3)cc12 [Compound 180, N-(5-(1-(3-(trifluoromethyl)benzyl)-1H-pyrazol-4-yl)-1H-indol-3-yl)acetamide]
5000 to 100000	CC(=O)NC(C)(C)C(=O)Nc1c[nH]c2ccc(-c3cnn(-c4ccc(C(F)(F)F)cc4)c3)cc12 [Compound 181, 2-acetamido-2-methyl-N-(5-(1-(4-(trifluoromethyl)phenyl)-1H-pyrazol-4-yl)-1H-indol-3-yl)propanamide]
5000 to 100000	CC(C)CC(C)(N)C(=O)Nc1c[nH]c2ccc(-c3cnn(-c4ccc(C(F)(F)F)cc4)c3)cc12 (stereo not shown) [Compound 182, 2-amino-2,4-dimethyl-N-(5-(1-(4-(trifluoromethyl)phenyl)-1H-pyrazol-4-yl)-1H-indol-3-yl)pentanamide]
1000 to 5000	O=C(CNCC(F)(F)F)Nc1c[nH]c2ccc(-c3cnn(-c4ccc(C(F)(F)F)cc4)c3)cc12 [Compound 183, 2-((2,2,2-trifluoroethyl)amino)-N-(5-(1-(4-(trifluoromethyl)phenyl)-1H-pyrazol-4-yl)-1H-indol-3-yl)acetamide]
5000 to 100000	NC1(C(=O)Nc2c[nH]c3ccc(-c4cnn(-c5ccc(C(F)(F)F)cc5)c4)cc23)CC(F)(F)C1 [Compound 185, 1-amino-3,3-difluoro-N-(5-(1-(4-(trifluoromethyl)phenyl)-1H-pyrazol-4-yl)-1H-indol-3-yl)cyclobutane-1-carboxamide]
200 to 1000	O=C(Nc1c[nH]c2ccc(-c3cnn(-c4ccc(C(F)(F)F)cc4)c3)cc12)C1(O)CCCC1 [Compound 186, 1-hydroxy-N-(5-(1-(4-(trifluoromethyl)phenyl)-1H-pyrazol-4-yl)-1H-indol-3-yl)cyclopentane-1-carboxamide]
200 to 1000	O=C(Nc1c[nH]c2ccc(-c3cnn(-c4ccc(C(F)(F)F)cc4)c3)cc12)C1(O)CCCCC1 [Compound 187, 1-hydroxy-N-(5-(1-(4-(trifluoromethyl)phenyl)-1H-pyrazol-4-yl)-1H-indol-3-yl)cyclohexane-1-carboxamide]
1000 to 5000	O=C(Nc1c[nH]c2ccc(-c3cnn(-c4ccc(C(F)(F)F)cc4)c3)cc12)C1CCC(CO)CC1 (stereo not shown) [Compound 188, 4-(hydroxymethyl)-N-(5-(1-(4-(trifluoromethyl)phenyl)-1H-pyrazol-4-yl)-1H-indol-3-yl)cyclohexane-1-carboxamide]
5000 to 100000	CC(C)(N)CC(=O)Nc1c[nH]c2ccc(-c3cnn(-c4ccc(C(F)(F)F)cc4)c3)cc12 [Compound 189, 3-amino-3-methyl-N-(5-(1-(4-(trifluoromethyl)phenyl)-1H-pyrazol-4-yl)-1H-indol-3-yl)butanamide]
5000 to 100000	O=C(Nc1c[nH]c2ccc(-c3cnn(-c4ccc(C(F)(F)F)cc4)c3)cc12)C1CC(F)C1 (stereo not shown) [Compound 190, 3-fluoro-N-(5-(1-(4-(trifluoromethyl)phenyl)-1H-pyrazol-4-yl)-1H-indol-3-yl)cyclobutane-1-carboxamide]
200 to 1000	O=C(Nc1c[nH]c2ccc(-c3cnn(Cc4ccc(C(F)(F)F)nc4)c3)cc12)C1CCC1 [Compound 191, N-(5-(1-((6-(trifluoromethyl)pyridin-3-yl)methyl)-1H-pyrazol-4-yl)-1H-indol-3-yl)cyclobutanecarboxamide]
200 to 1000	C[C@@H](O)C(=O)Nc1c[nH]c2cc(F)c(-c3cnn(-c4ccc(C(F)(F)F)cc4)c3)cc12 [Compound 192, (R)-N-(6-fluoro-5-(1-(4-(trifluoromethyl)phenyl)-1H-pyrazol-4-yl)-1H-indol-3-yl)-2-hydroxypropanamide]
1000 to 5000	CC(NS(C)(=O)=O)C(=O)Nc1c[nH]c2cc(F)c(-c3cnn(-c4ccc(C(F)(F)F)cc4)c3)cc12 (stereo not shown) [Compound 193, N-(6-fluoro-5-(1-(4-(trifluoromethyl)phenyl)-1H-pyrazol-4-yl)-1H-indol-3-yl)-2-(methylsulfonamido)propanamide]
1000 to 5000	O=C(Nc1c[nH]c2ccc(-c3cnn(-c4ccc(C(F)(F)F)cc4)c3)cc12)C1(O)COC1 [Compound 194, 3-hydroxy-N-(5-(1-(4-(trifluoromethyl)phenyl)-1H-pyrazol-4-yl)-1H-indol-3-yl)oxetane-3-carboxamide]
200 to 1000	O=C(CC(O)C(F)(F)F)Nc1c[nH]c2ccc(-c3cnn(-c4ccc(C(F)(F)F)cc4)c3)cc12 (stereo not shown) [Compound 195, 4,4,4-trifluoro-3-hydroxy-N-(5-(1-(4-(trifluoromethyl)phenyl)-1H-pyrazol-4-yl)-1H-indol-3-yl)butanamide]
1000 to 5000	O=C(Nc1c[nH]c2ccc(-c3cnn(-c4ccc(C(F)(F)F)cc4)c3)cc12)C(CO)C(F)(F)F (stereo not shown) [Compound 196, 3,3,3-trifluoro-2-(hydroxymethyl)-N-(5-(1-(4-(trifluoromethyl)phenyl)-1H-pyrazol-4-yl)-1H-indol-3-yl)propanamide]
200 to 1000	CCC(O)C(=O)Nc1c[nH]c2ccc(-c3cnn(-c4ccc(C(F)(F)F)cc4)c3)cc12 (stereo not shown) [Compound 197, 2-hydroxy-N-(5-(1-(4-(trifluoromethyl)phenyl)-1H-pyrazol-4-yl)-1H-indol-3-yl)butanamide]
1000 to 5000	CC(C)(O)C(=O)Nc1c[nH]c2ccc(-c3cnn(-c4ccc(C(F)(F)F)cc4)c3)cc12 [Compound 198, 2-hydroxy-2-methyl-N-(5-(1-(4-(trifluoromethyl)phenyl)-1H-pyrazol-4-yl)-1H-indol-3-yl)propanamide]
1000 to 5000	COCC1(C(=O)Nc2c[nH]c3ccc(-c4cnn(-c5ccc(C(F)(F)F)cc5)c4)cc23)CCC1 [Compound 199, 1-(methoxymethyl)-N-(5-(1-(4-(trifluoromethyl)phenyl)-1H-pyrazol-4-yl)-1H-indol-3-yl)cyclobutane-1-carboxamide]
1000 to 5000	CCC(C)(O)C(=O)Nc1c[nH]c2ccc(-c3cnn(-c4ccc(C(F)(F)F)cc4)c3)cc12 (stereo not shown) [Compound 200, 2-hydroxy-2-methyl-N-(5-(1-(4-(trifluoromethyl)phenyl)-1H-pyrazol-4-yl)-1H-indol-3-yl)butanamide]
1000 to 5000	CC(C)(CO)C(=O)Nc1c[nH]c2ccc(-c3cnn(-c4ccc(C(F)(F)F)cc4)c3)cc12 [Compound 201, 3-hydroxy-2,2-dimethyl-N-(5-(1-(4-(trifluoromethyl)phenyl)-1H-pyrazol-4-yl)-1H-indol-3-yl)propanamide]
200 to 1000	O=C(Nc1c[nH]c2ccc(-c3cnn(-c4ccc(C(F)(F)F)cc4)c3)cc12)C1(O)CCC1 [Compound 202, 1-hydroxy-N-(5-(1-(4-(trifluoromethyl)phenyl)-1H-pyrazol-4-yl)-1H-indol-3-yl)cyclobutane-1-carboxamide]
5000 to 100000	CC1(C(=O)Nc2c[nH]c3ccc(-c4cnn(-c5ccc(C(F)(F)F)cc5)c4)cc23)CCCO1 (stereo not shown) [Compound 203, 2-methyl-N-(5-(1-(4-(trifluoromethyl)phenyl)-1H-pyrazol-4-yl)-1H-indol-3-yl)tetrahydrofuran-2-carboxamide]
1000 to 5000	CC(C)[C@H](O)C(=O)Nc1c[nH]c2ccc(-c3cnn(-c4ccc(C(F)(F)F)cc4)c3)cc12 [Compound 204, (S)-2-hydroxy-3-methyl-N-(5-(1-(4-(trifluoromethyl)phenyl)-1H-pyrazol-4-yl)-1H-indol-3-yl)butanamide]
